Each structure is given as a SMILES string. “And” between values parts separate entries of the source, which are not always exact repeats. Equal entries are not always repeated.

For this test, the system named is BDF1 mice, Adenocarcinoma 755 s.c., tumor weight T/C. The test can be described thus: NCI In Vivo Anticancer Drug Screen. Data for tumor model Adenocarcinoma 755 (subcutaneous) in B6D2F1 (BDF1) mice. The settings on record: endpoint: mean tumor weight, higher = larger tumour. In outline:
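Readout: T/C, i.e. treated-group measurement over vehicle-control measurement. Endpoint is survival or tumor size in tumor-bearing mice given compound.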

[1] abbreviates: dose: 25.0 mg/kg/injection, schedule: Q01DX011 (ip), vehicle: methylcellulose (MC).
Where [2] appears, read: dose: 100.0 mg/kg/injection, schedule: Q01DX011 (ip), vehicle: carboxymethylcellulose (CMC).
Where [3] appears, read: dose: 25.0 mg/kg/injection, schedule: Q01DX011 (ip), vehicle: carboxymethylcellulose (CMC).
Where [4] appears, read: dose: 50.0 mg/kg/injection, schedule: Q01DX011 (ip), vehicle: carboxymethylcellulose (CMC).

For the molecule `O=C(CCl)N1c2ccccc2Oc2cc3ccccc3cc21`, the T/C by setting is: (dose: 4.4 mg/kg/injection, schedule: Q01DX011 (ip), vehicle: methylcellulose (MC)) 78 % of control; (dose: 6.6 mg/kg/injection, schedule: Q01DX011 (ip), vehicle: methylcellulose (MC)) 62 % of control; (dose: 10.0 mg/kg/injection, schedule: Q01DX011 (ip), vehicle: methylcellulose (MC)) 54 % of control; (dose: 14.0 mg/kg/injection, schedule: Q01DX011 (ip), vehicle: methylcellulose (MC)) 45 % of control; (dose: 14.0 mg/kg/injection, schedule: Q01DX011 (ip), vehicle: other) 120 % of control; (dose: 28.0 mg/kg/injection, schedule: Q01DX011 (ip), vehicle: methylcellulose (MC)) 33 % of control. Moreover, the T/C runs as follows: (dose: 28.0 mg/kg/injection, schedule: Q01DX011 (ip), vehicle: other) 87 % of control; (dose: 56.0 mg/kg/injection, schedule: Q01DX011 (ip), vehicle: other) 61 % of control; (dose: 112.0 mg/kg/injection, schedule: Q01DX011 (ip), vehicle: other) 94 % of control.
Take `Nc1cccc2c(=O)[nH][nH]c(=O)c12`: the T/C (dose: 62.5 mg/kg/injection, schedule: Q01DX011 (ip), vehicle: water) is 71 % of control; the T/C (dose: 125.0 mg/kg/injection, schedule: Q01DX011 (ip), vehicle: water) was 82 % of control; the T/C (dose: 250.0 mg/kg/injection, schedule: Q01DX011 (ip), vehicle: water) is 59 % of control.
On to `Cn1c[n+](C2OC(CO)C(O)C2O)c2nc([O-])[nH]c(=O)c21` (stereo unspecified), for which the T/C under setting [1] was 65 % of control; the T/C (dose: 75.0 mg/kg/injection, schedule: Q01DX011 (ip), vehicle: methylcellulose (MC)) was 103 % of control; the T/C (dose: 225.0 mg/kg/injection, schedule: Q01DX011 (ip), vehicle: methylcellulose (MC)) was 44 % of control.
Take `CC(C)C(Nc1ncnc2nc[nH]c12)C(=O)O` (stereo unspecified): the T/C is, setting by setting: (dose: 12.0 mg/kg/injection, schedule: Q01DX011 (ip), vehicle: methylcellulose (MC)) 180 % of control; under setting [1], 230 % of control; (dose: 50.0 mg/kg/injection, schedule: Q01DX011 (ip), vehicle: methylcellulose (MC)) 239 % of control; (dose: 100.0 mg/kg/injection, schedule: Q01DX011 (ip), vehicle: methylcellulose (MC)) 192 % of control.
On to `Cn1ncc2c([N+](C)(C)C)ncnc21`, for which the T/C was 82 % of control (dose: 25.0 mg/kg/injection, schedule: Q01DX011 (ip), vehicle: saline) and 111 % of control (dose: 75.0 mg/kg/injection, schedule: Q01DX011 (ip), vehicle: saline).
For the molecule `CC/C(=C(/CC)c1ccc(O)cc1)c1ccc(O)cc1`, the T/C is, setting by setting: (dose: 40.0 mg/kg/injection, schedule: Q01DX011 (sc), vehicle: steriod suspending solution) 114 % of control; (dose: 41.2 mg/kg/injection, schedule: Q01DX011 (sc), vehicle: steriod suspending solution) 53 % of control; (dose: 62.5 mg/kg/injection, schedule: Q01DX011 (sc), vehicle: steriod suspending solution) 41 % of control; (dose: 68.66 mg/kg/injection, schedule: Q01DX011 (sc), vehicle: steriod suspending solution) 45 % of control; (dose: 80.0 mg/kg/injection, schedule: Q01DX011 (sc), vehicle: steriod suspending solution) 178 % of control; (dose: 103.0 mg/kg/injection, schedule: Q01DX011 (sc), vehicle: steriod suspending solution) 38 % of control and 44 % of control and 50 % of control. Further, the T/C was 33 % of control (dose: 125.0 mg/kg/injection, schedule: Q01DX011 (sc), vehicle: steriod suspending solution); 111 % of control (dose: 160.0 mg/kg/injection, schedule: Q01DX011 (sc), vehicle: steriod suspending solution); 48 % of control (dose: 250.0 mg/kg/injection, schedule: Q01DX011 (sc), vehicle: steriod suspending solution); 98 % of control (dose: 320.0 mg/kg/injection, schedule: Q01DX011 (sc), vehicle: steriod suspending solution).
Consider `CCN(CC)C(=O)CSc1ncnc2nc[nH]c12`, for which the T/C is 91 % of control (dose: 6.0 mg/kg/injection, schedule: Q01DX011 (ip), vehicle: methylcellulose (MC)); 43 % of control under setting [1]; 6 % of control (dose: 31.25 mg/kg/injection, schedule: Q01DX011 (ip), vehicle: methylcellulose (MC)); 4 % of control (dose: 62.5 mg/kg/injection, schedule: Q01DX011 (ip), vehicle: methylcellulose (MC)).
For the molecule `Cc1cc(N=Nc2ccc(-c3ccc(N=Nc4ccc(O)c(C(=O)O)c4)cc3)cc2)c(N)c(N=Nc2ccc(C(=O)Nc3ccc4cc(S(=O)(=O)O)ccc4c3)cc2)c1N`, the T/C runs as follows: (dose: 45.0 mg/kg/injection, schedule: Q01DX011 (ip), vehicle: carboxymethylcellulose (CMC)) 158 % of control; (dose: 65.0 mg/kg/injection, schedule: Q01DX011 (ip), vehicle: carboxymethylcellulose (CMC)) 119 % of control; under setting [2], 69 % of control; (dose: 150.0 mg/kg/injection, schedule: Q01DX011 (ip), vehicle: carboxymethylcellulose (CMC)) 72 % of control.
As to `COC1C(OC(=O)/C=C/C=C/C=C/C=C\C(=O)O)CCC2(CO2)C1C1(C)OC1CC=C(C)C` (stereo unspecified), the T/C is, setting by setting: (dose: 10.0 mg/kg/injection, schedule: Q01DX011 (ip), vehicle: other) 90 % of control; (dose: 20.0 mg/kg/injection, schedule: Q01DX011 (ip), vehicle: other) 98 % of control; (dose: 40.0 mg/kg/injection, schedule: Q01DX011 (ip), vehicle: other) 64 % of control; (dose: 80.0 mg/kg/injection, schedule: Q01DX011 (ip), vehicle: other) 82 % of control; (dose: 160.0 mg/kg/injection, schedule: Q01DX011 (ip), vehicle: other) 74 % of control.
For `CN1CCC(CN2c3ccccc3Sc3ccccc32)CC1`, the T/C (dose: 120.0 mg/kg/injection, schedule: Q01DX011 (ip), vehicle: methylcellulose (MC)) was 23 % of control.
Consider `CC1(O)CC([CH2][Hg][I])OC([CH2][Hg][I])C1` (stereo unspecified), for which the T/C reads like this: under setting [3], 96 % of control; under setting [4], 67 % of control.
For `CC(=O)Nc1c(Cl)cc2c(c1Cl)Cc1cc([N+](=O)[O-])ccc1-2`, the T/C runs as follows: (dose: 0.8 mg/kg/injection, schedule: Q01DX011 (ip), vehicle: carboxymethylcellulose (CMC)) 32 % of control; (dose: 1.6 mg/kg/injection, schedule: Q01DX011 (ip), vehicle: carboxymethylcellulose (CMC)) 47 % of control; (dose: 3.0 mg/kg/injection, schedule: Q01DX011 (ip), vehicle: other) 61 % of control; (dose: 3.12 mg/kg/injection, schedule: Q01DX011 (ip), vehicle: carboxymethylcellulose (CMC)) 25 % of control; (dose: 6.0 mg/kg/injection, schedule: Q01DX011 (ip), vehicle: other) 87 % of control; (dose: 6.25 mg/kg/injection, schedule: Q01DX011 (ip), vehicle: carboxymethylcellulose (CMC)) 31 % of control and 33 % of control. The T/C was 59 % of control (dose: 6.25 mg/kg/injection, schedule: Q01DX011 (ip), vehicle: other); 15 % of control (dose: 12.5 mg/kg/injection, schedule: Q01DX011 (ip), vehicle: carboxymethylcellulose (CMC)); 22 % of control and 35 % of control (dose: 12.5 mg/kg/injection, schedule: Q01DX011 (ip), vehicle: other); 9 % of control under setting [3]; 24 % of control and 45 % of control (dose: 25.0 mg/kg/injection, schedule: Q01DX011 (ip), vehicle: other); 9 % of control under setting [4]. Moreover, the T/C by setting is: (dose: 50.0 mg/kg/injection, schedule: Q01DX011 (ip), vehicle: other) 31 % of control and 35 % of control; under setting [2], 8 % of control; (dose: 100.0 mg/kg/injection, schedule: Q01DX011 (ip), vehicle: other) 30 % of control; (dose: 200.0 mg/kg/injection, schedule: Q01DX011 (ip), vehicle: carboxymethylcellulose (CMC)) 6 % of control and 25 % of control; (dose: 200.0 mg/kg/injection, schedule: Q01DX011 (ip), vehicle: other) 26 % of control; (dose: 300.0 mg/kg/injection, schedule: Q01DX011 (ip), vehicle: carboxymethylcellulose (CMC)) 6 % of control. The T/C (dose: 400.0 mg/kg/injection, schedule: Q01DX011 (ip), vehicle: other) was 20 % of control.
For `NC(N)=NC(CC(=O)O)c1ccccc1` (stereo unspecified), the T/C is 87 % of control (dose: 15.0 mg/kg/injection, schedule: Q01DX011 (ip), vehicle: saline); 99 % of control (dose: 31.0 mg/kg/injection, schedule: Q01DX011 (ip), vehicle: saline); 87 % of control (dose: 62.0 mg/kg/injection, schedule: Q01DX011 (ip), vehicle: saline); 107 % of control (dose: 125.0 mg/kg/injection, schedule: Q01DX011 (ip), vehicle: saline); 91 % of control (dose: 250.0 mg/kg/injection, schedule: Q01DX011 (ip), vehicle: saline).

Broadly, the T/C is the result in the treated group divided by that in the control group, in per cent.
